In publication PMC8760323, “Single-chain tandem macrocyclic peptides as a scaffold for growth factor and cytokine mimetics” (Communications Biology, 2022):

Key:
Format in all cases: cell-based, human
[1] = system: BM-hMSCs; assay: Flow cytometry of MSC surface markers; conditions: for surface marker expression of stimulated BM-hMSCs: 3 days; for CD45 Positive (%) / CD90 Positive (%): flow cytometry, Fig. S11b
Description: The marker expression of BM-hMSCs unstimulated or stimulated using 1.3 nM rhHGF or 32 nM aMD4dY-PA22 for 3 days were analyzed via flow cytometry. Harvested cells were blocked with PBS supplemented with Human TruStain FcX (Biolegend) for 10 min on ice. […] For the isotype controls, 1:10 diluted PE mouse IgG1 k Isotype (Biolegend) and FITC mouse IgG1 k Isotype (Biolegend) were utilized. After washing two times with a cell stain buffer, cells were analyzed using Attune NxT flow cytometer (Thermo Fisher Scientific).

[2] = system: HuCCT1 cells; assay: Branching morphogenesis in collagen gel; conditions: 7 days; 0.44 nM rhHGF or […] aMD4dY-PA22
Description: HuCCT1 cells at a density of 20,000 cells/well were mixed with 400 μL of ice-cold collagen-containing culture medium (DMEM/Nutrient Mixture F-12, CellMatrix type IA [Nitta Gelatin Inc., Osaka, Japan], 2.2 g/L of sodium bicarbonate, 4.77 g/L of 4-(2-hydroxyethyl)-1-piperazineethanesulfonic acid [HEPES], and 0.005 N sodium hydroxide) and incubated in a 48-well cell culture plate in 5% CO2 at 37 °C for gelation. The cells encapsulated in the collagen gel were cultured with 500 μL of RPMI 1640 medium supplemented with 10% FBS with or without 0.44 nM HGF or 6.3 nM aMD4dY-PA22 in 5% CO2 at 37 °C. The culture medium was changed every 3 days. At day 7, the cells were observed by inverted microscopy.

[3] = system: Met; assay: SRE reporter assay for HGF activity (Erk-SRE, HEK293 cells); conditions: N=1; for Normalized Firefly/Renilla: Fig. S6b/c, 420 nM rhHGF
Description: The Met-activating ability of HGF mimetic STaMPtides was evaluated by SRE reporter assay using the SRE reporter vector (QIAGEN, Hilden, Germany) according to the manufacturer’s instructions. Briefly, 1 μL of the SRE reporter vector was mixed with 0.6 μL of Attractene Transfection Reagent (QIAGEN) in 50 μL of Opti-MEM medium (Thermo Fisher Scientific) to form a transfection complex. Next, HEK293 cells at a density of 40,000 cells/well were seeded on 96-well cell culture plates with the transfection complex and incubated overnight in 5% CO2 at 37 °C. The cells were starved with Opti-MEM containing 0.5% FBS, 1% non-essential amino acid solution, and penicillin-streptomycin and incubated at 37 °C for 4 h. Next, the cells were stimulated by rhHGF, purified HGF mimetic STaMPtides, monomeric aMD4dY, or decellularized supernatant overnight in a 5% CO2 incubator at 37 °C. The signal intensity was detected using the dual-luciferase reporter assay system (Promega Corporation) and a Nivo plate reader (PerkinElmer, Inc., Waltham, MA, USA). Reporter activity was calculated as (luminescence intensity of Firefly luciferase)/(luminescence intensity of Renilla luciferase) and normalized by that without a stimulant in order to determine the relative reporter activity.

[4] = system: BM-hMSCs; assay: Cytokine array of conditioned media; conditions: 3 days
Description: The conditioned media (supernatant) of BM-hMSCs unstimulated or stimulated with 1.3 nM rhHGF or 32 nM aMD4dY-PA22 for 3 days were filtered using Millex-GV 0.22 µm PVDF membrane filter (Millipore) and analyzed using Human Cytokine Array C5 (Ray Biotech) according to the manufacturer’s instructions. Chemiluminescence was detected using Amersham Imager 600 (Cytiva).

[5] = system: hPBMCs; assay: Colony-forming assay; conditions: sheet Fig. 4, Fig. 4b
Description: Next, 1.1 mL of the mixture was seeded in a 6-well cell culture plate and cultured for 13 days in 5% CO2 at 37 °C. At day 13, colony numbers were counted, and images were taken by inverted microscopy and BZ-X fluorescence microscopy.

[6] = system: HuCCT1 cells; assay: Scratch assay (wound healing); conditions: for wound healing compared with no stimulation: 0.41 nM rhHGF or 16 nM aMD4dY-PA22; for Closure rate / Wound closure: 1 to 7 h, 0.41 nM HGF or 16 nM aMD4dY-PA22
Description: HuCCT1 cells at a density of 50,000 cells/well in RPMI 1640 medium supplemented with 10% FBS were added to a 96-well cell culture plate and incubated overnight in 5% CO2 at 37 °C to form cellular monolayers. The centers of the cellular monolayers were scratched with 1000 μL micropipette tips and incubated in RPMI 1640 medium supplemented with 0.5% FBS with or without 0.41 nM HGF or 16 nM aMD4dY-PA22 in 5% CO2 at 37 °C. Images of the cells were captured every hour using BioStudio-T (Nikon, Tokyo, Japan). The average wound healing rate was calculated as [(width of the wound 1 h after scratching) − (width of the wound […])]/6.

[7] = system: RTKs; assay: Phospho-RTK array; conditions: 1.3 nM rhHGF or 32 nM aMD4dY-PA22, 10 min
Description: Ligand specificity against RTKs was evaluated using the Proteome Profiler Human Phospho-RTK Array Kit (R&D Systems). Confluent HEK293 cells in a 10 cm cell culture dish were starved in DMEM supplemented with 0.5% FBS and penicillin-streptomycin for 24 h. The starved cells were stimulated by 1.3 nM rhHGF or 32 nM aMD4dY-PA22 for 10 min, rinsed once with PBS, and lysed with 1 mL of lysis buffer 17 (R&D Systems) supplemented with a protease inhibitor cocktail (Nacalai Tesque). Lysates were analyzed using the Proteome Profiler Human Phospho-RTK Array Kit (R&D Systems) according to the manufacturer’s instructions. Chemiluminescence was detected using the Molecular Imager ChemiDoc XRS System (Bio-Rad Laboratories).

Substance | surface marker expression of stimulated BM-hMSCs [1] | CD45 Positive (%) ([1]; replicate 1) | CD90 Positive (%) ([1]; replicate 1) | CD45 Positive (%) ([1]; replicate 2) | CD90 Positive (%) ([1]; replicate 2) | branching morphology [2] | cytokines and growth factors in conditioned supernatant [4] | Colony number ([5]; N 1) | Colony number ([5]; N 2) | Colony number ([5]; N 3) | Colony number ([5]; N 4) | wound healing compared with no stimulation [6] [fold] | Closure rate ([6]; replicate 1) [μm/h] | Wound closure ([6]; replicate 1) [μm] | Closure rate ([6]; replicate 2) [μm/h] | Wound closure ([6]; replicate 2) [μm] | Closure rate ([6]; replicate 3) [μm/h] | Wound closure ([6]; replicate 3) [μm] | Closure rate ([6]; replicate 4) [μm/h] | Wound closure ([6]; replicate 4) [μm] | other results
AET - CRQFNRRTHEVWNLDCG - AAPAAPA PAAPAAPA PAAPAA PG - CRQFNRRTHEVWNLDC (bicyclic or more) [aMD4dY-PA22, HGF mimetic STaMPtide, two aMD4dY macrocycles with a 22-amino-acid PA linker, secreted by C. glutamicum] | expressed hMSC positive markers (CD105, CD73, CD90) and no negative markers (CD45, CD34) | 0.665 | 99.857 | 1.718 | 99.76 | showed branched tubular structures | to the same extent as unstimulated parental BM-hMSCs | 104.419 | 110.38 | 95.5447 | 95.787 | 1.8 | 104.419 | 626.514 | 110.38 | 662.279 | 95.5447 | 573.268 | 95.787 | 574.722 | Normalized F/R ([3]; Fig. S6d, supernatant, dilution 10): 4.6947; Normalized F/R ([3]; Fig. S6d, supernatant, dilution 30): 5.172; Normalized F/R ([3]; Fig. S6d, supernatant, dilution 90): 5.6777; Normalized F/R ([3]; Fig. S6d, supernatant, dilution 810): 3.099; Normalized F/R ([3]; Fig. S6d, supernatant, dilution 2430): 1.722; Erk-SRE reporter activity of decellularized supernatants ([3]; rapid screening without purification): highest activity; selectivity against RTKs [7]: highly Met-selective
rhHGF: recombinant human HGF (R&D Systems) | expressed hMSC positive markers (CD105, CD73, CD90) and no negative markers (CD45, CD34) | 1.409 | 99.927 | 1.405 | 99.878 | showed branched tubular structures | to the same extent as unstimulated parental BM-hMSCs | 88.8457 | 100.748 | 98.5177 | 94.0632 | 1.6 | 88.8457 | 533.074 | 100.748 | 604.487 | 98.5177 | 591.106 | 94.0632 | 564.379 | Normalized F/R ([3]; Fig. S6a, 2.008 pM): 0.9952; Normalized F/R ([3]; Fig. S6a, 10.04 pM): 0.9963; Normalized F/R ([3]; Fig. S6a, 50.19 pM): 1.192; Normalized F/R ([3]; Fig. S6a, 250.9 pM): 3.768; Normalized F/R ([3]; Fig. S6a, 1.25471e-9 M): 8.884; Normalized Firefly/Renilla ([3]; dilution 1000): 9.87; Normalized Firefly/Renilla ([3]; dilution 10000): 1.622; selectivity against RTKs [7]: highly Met-selective
